Experiments:
Assay type in all cases: in vivo
[1] = tested on: ABUTH; assay: Pre-emergence herbicidal activity, glasshouse pot test; conditions: rate 1000 g/Ha, evaluated after 13 days, scale 0-5
Method: (§1) Seeds of a variety of test species were sown in standard soil in pots. After cultivation for one day (pre-emergence) under controlled conditions in a glasshouse (at 24/16° C., day/night; 14 hours light; 65% humidity), the plants were sprayed with an aqueous spray solution derived from the formulation of the technical active ingredient in acetone/water (50:50) solution containing 0.5% Tween 20 (polyoxyethelyene sorbitan monolaurate, CAS RN 9005-64-5). The test plants were then grown in a glasshouse under controlled conditions (at 24/16° C., day/night; 14 hours light; 65% humidity) and watered twice daily. After 13 days, the test was evaluated (5=total damage to plant; 0=no damage to plant).

[2] = tested on: AMARE; assay: as above; conditions: rate 1000 g/Ha, evaluated after 13 days, scale 0-5
Method: as §1

[3] = tested on: ECHCG; assay: as above; conditions: rate 1000 g/Ha, evaluated after 13 days, scale 0-5
Method: as §1

[4] = tested on: SETFA; assay: as above; conditions: rate 1000 g/Ha, evaluated after 13 days, scale 0-5
Method: as §1

[5] = tested on: ZEAMX; assay: as above; conditions: rate 1000 g/Ha, evaluated after 13 days, scale 0-5
Method: as §1

[6] = tested on: ABUTH; assay: Post-emergence herbicidal activity, glasshouse pot test; conditions: Abutilon theophrasti; application post-emergence; rate 1000 g/Ha; evaluated after 13 days
Method: (§2) Seeds of a variety of test species were sown in standard soil in pots. After 8 days cultivation (post-emergence) under controlled conditions in a glasshouse (at 24/16° C., day/night; 14 hours light; 65% humidity), the plants were sprayed with an aqueous spray solution derived from the formulation of the technical active ingredient in acetone/water (50:50) solution containing 0.5% Tween 20 (polyoxyethelyene sorbitan monolaurate, CAS RN 9005-64-5). The test plants were then grown in a glasshouse under controlled conditions (at 24/16° C., day/night; 14 hours light; 65% humidity) and watered twice daily. After 13 days, the test was evaluated (5=total damage to plant; 0=no damage to plant).

[7] = tested on: AMARE; assay: as above; conditions: Amaranthus retroflexus; application post-emergence; rate 1000 g/Ha; evaluated after 13 days
Method: as §2

[8] = tested on: ECHCG; assay: as above; conditions: Echinochloa crus-galli; application post-emergence; rate 1000 g/Ha; evaluated after 13 days
Method: as §2

[9] = tested on: SETFA; assay: as above; conditions: Setaria faberi; application post-emergence; rate 1000 g/Ha; evaluated after 13 days
Method: as §2

[10] = tested on: ZEAMX; assay: as above; conditions: Zea mays; application post-emergence; rate 1000 g/Ha; evaluated after 13 days
Method: as §2

SMILES | ABUTH damage score, application pre-emergence [1] | AMARE damage score, application pre-emergence [2] | ECHCG damage score, application pre-emergence [3] | SETFA damage score, application pre-emergence [4] | ZEAMX damage score, application pre-emergence [5] | Post-emergence herbicidal activity ABUTH (damage score 0-5) [6] | Post-emergence herbicidal activity AMARE (damage score 0-5) [7] | Post-emergence herbicidal activity ECHCG (damage score 0-5) [8] | Post-emergence herbicidal activity SETFA (damage score 0-5) [9] | Post-emergence herbicidal activity ZEAMX (damage score 0-5) [10]
C[C@@H]1C(O)N(c2cc(C(F)(F)F)ccn2)C(=O)N1C (mixture of isomers) [Compound A38, (4R,5R)-4-hydroxy-1,5-dimethyl-3-[4-(trifluoromethyl)-2-pyridyl]imidazolidin-2-one and (4S,5R)-4-hydroxy-1,5-dimethyl-3-[4-(trifluoromethyl)-2-pyridyl]imidazolidin-2-one] | 5 | 5 | 5 | 5 | 3 | 5 | 5 | 5 | 5 | 4
CCO[C@@H]1C(O)N(c2cc(C(F)(F)F)ccn2)C(=O)N1C (single isomer, unassigned) [Compound A34] | 5 | 5 | 5 | 5 | 3 | 5 | 5 | 5 | 5 | 4
CCO[C@H]1C(O)N(c2cc(C(F)(F)F)ccn2)C(=O)N1C (single isomer, unassigned) [Compound A35] | 4 | 5 | 4 | 4 | 2 | 0 | 5 | 3 | 3 | 1
CC1C(O)N(c2cc(C(F)(F)C(F)(F)F)ccn2)C(=O)N1C (single isomer, unassigned) [Compound A72] | 5 | 5 | 5 | 5 | 2 | 5 | 5 | 5 | 5 | 2
CON1C(=O)N(c2cc(C(C)(F)F)ccn2)C(O)C1C (single isomer, unassigned) [Compound A93] | 5 | 5 | 5 | 5 | 3 | 5 | 5 | 5 | 5 | 4
O=C1N2COCC2C(O)N1c1cc(C(F)(F)F)ccn1 (single isomer, unassigned) [Compound A94] | 5 | 5 | 5 | 5 | 4 | 5 | 5 | 5 | 5 | 5
C=CC1C(O)N(c2cc(C(F)(F)F)ccn2)C(=O)N1C (centres unmarked) [Compound A31] | 5 | 5 | 5 | 5 | 2 | 5 | 5 | 5 | 5 | 4
C=Cc1cnc(N2C(=O)N(C)C(C)C2O)cc1C(F)(F)F (centres unmarked) [Compound A62] | 4 | 5 | 4 | 3 | 2 | 5 | 5 | 5 | 5 | 2
CC1C(O)N(c2cc(C(F)(F)F)ccn2)C(=O)N1O (centres unmarked) [Compound A64] | 2 | 5 | 4 | 3 | 2 | 4 | 5 | 5 | 4 | 1
CC1C(O)N(c2cc(C(F)(F)F)c(C(=O)NC(C)(C)C)cn2)C(=O)N1C (centres unmarked) [Compound A65] | 5 | 5 | 5 | 5 | 3 | 5 | 5 | 5 | 5 | 5
CON1C(=O)N(c2ccc(C(=O)NC(C)(C)C)cn2)C(O)C1C (centres unmarked) [Compound A66] | 5 | 5 | 5 | 4 | 2 | 5 | 5 | 5 | 5 | 5
CC1C(O)N(c2ccc(C(=O)NC(C)(C)C)cn2)C(=O)N1C (centres unmarked) [Compound A67] | 5 | 5 | 5 | 5 | 3 | 5 | 5 | 5 | 5 | 4
CN1C(=O)N(c2cc(C(F)(F)F)ccn2)C(O)C1CC(F)(F)F (centres unmarked) [Compound A68] | 0 | 0 | 0 | 0 | 0 | 0 | 0 | 0 | 0 | 0
CCOC1C(O)N(c2cc(Cl)c(C(=O)NC(C)(C)C)cn2)C(=O)N1C (centres unmarked) [Compound A69] | 5 | 5 | 5 | 5 | 2 | 5 | 4 | 5 | 4 | 3

Source: US11608323B2 (SYNGENTA LIMITED, priority 2013, dated 2023)
